# Measured values published in publication PMC3728092, “Improvement of Pharmacokinetics Behavior of Apocynin by Nitrone Derivatization: Comparative Pharmacokinetics of Nitrone-Apocynin and its Parent Apocynin in Rats” (PLoS ONE, 2013).
# Values joined by “and” are separate entries in the source; they are usually repeats but may differ in a detail not shown here. Equal entries are not always repeated. Where two headings read alike, the source gives them in different places.
# Legend:
# [1] = Single-dose pharmacokinetic study (intravenous and intragastric) with HPLC-UV plasma assay, non-compartmental analysis; assay type: in vivo, Sprague-Dawley rats; settings: rat; for half-life / bioavailability / Cmax / Tmax / MRT last / clearance: male, Sprague-Dawley, plasma; for bioavailability: oral, read-out: F (absolute oral bioavailability); for MRT last: read-out: MRT0–t (converted)
# Experimental: (§1) Male Sprague-Dawley rats, weighing 210–290 g, were fasted for 12 h but with free access to water before dosing. The rats were randomly divided into groups of intravenous AN-1, intravenous apocynin, intragastric AN-1 and intragastric apocynin. […] Apocynin was dissolved in a mixture of propylene glycol-saline (4∶6, v/v). The single-dose pharmacokinetic study was performed. For AN-1, three different doses (20, 40 and 80 mg/kg) were administered for intravenous study (n = 6–8) and one dose (40 mg/kg) was given for intragastric study (n = 6). For apocynin, 50 mg/kg, an equimolar dose to 80 mg/kg (0.302 mmol/kg) of AN-1, was administered for both intravenous (n = 8) and intragastric studies (n = 6). A day before dosing, a cannula was introduced into jugular vein on rats for intravenous dosing and blood sampling in all groups.
# Blood samples (0.4 mL) was collected via jugular vein into heparinized tubes at 0 min (before dosing) and 5, 10, 15, 30, 45, 60, 90, 120, 180, 240, 360, 480, 600, 720, 840 min for AN-1 and at 0 min (before dosing) and 2, 4, 6, 10, 15, 20, 30, 40, 50, 60 min for apocynin after intravenous and intragastric dosing. An equal volume of heparinized saline was used to flush the catheter immediately after each blood withdrawal to prevent blood clotting. The blood samples were centrifuged immediately at 10,000 rpm for 5 min at 4°C, and then the plasma was transferred and stored at −20°C until analysis.
# The profiles of analyte concentrations in rat plasma versus time were analyzed to calculate pharmacokinetic parameters by a non-compartmental model using DAS software (version 3.0.1, Chinese Mathematical Pharmacology Society).
# [2] = Stability of analytes in rat plasma under different storage conditions; assay type: in vitro ADME; settings: for Accuracy, post-preparative stability: post-preparative QC samples; for Accuracy, post-preparative stability / Accuracy, short-term stability / Accuracy, freeze-thaw stability / Accuracy, long-term stability: n = 5; for time post-preparative solutions stable: room temperature; for Accuracy in stability test (summary) / Accuracy, short-term stability / Accuracy, freeze-thaw stability / Accuracy, long-term stability: rat plasma; for Accuracy in stability test (summary): long-term −20°C, short-term room temperature and three freeze-thaw cycles; for Accuracy, freeze-thaw stability: three freeze-thaw cycles; for Accuracy, long-term stability: −20°C for 30 days
# Experimental: The stability of analytes in rat plasma stored under different conditions was assessed at low, medium and high QC concentrations, respectively. The conditions included long-term storage at −20°C for 30 days, short-term storage at room temperature (8 h for AN-1, 24 h for apocynin), three freeze-thaw cycles treatment, and post-preparative QC samples stored at room temperature (8 h for AN-1, 24 h for apocynin). The concentrations measured from the above samples were compared with the nominal values of QC plasma samples. Samples were concluded stable and applicable to routine analysis if the deviation of the observed concentration was less than ±15% from the nominal value.
# [3] = Solubility in water (remark on dosing vehicle); assay type: physicochemical
# Experimental: as §1
# [4] = tested on: LPS-induced acute lung injury; design: method as in earlier work; settings: rat model of LPS-induced acute lung injury; cited from earlier work
# [5] = tested on: RAW 264.7 macrophage cells; design: method as in earlier work; settings: RAW 264.7 cells, compared to parent apocynin, cited from earlier work
# [6] = tested on: gp91^phox subunit of NADPH-oxidase; design: method as in earlier work; settings: RAW 264.7 macrophage cells; cited from earlier work
# [7] = intravenous and oral (intragastric), range over all intravenous and intragastric dose groups, read-out: terminal elimination half-life
# [8] = po, intragastric, 40 mg/kg, n = 6
# [9] = room temperature 8 h, 0.2 µg/mL
# [10] = room temperature 8 h, 250 µg/mL
# [11] = room temperature 8 h, 400 µg/mL
# [12] = po, intragastric, 50 mg/kg, n = 6
# [13] = room temperature 24 h, 0.4 µg/mL
# [14] = room temperature 24 h, 40 µg/mL
# [15] = room temperature 24 h, 80 µg/mL
smiles,measurement,setting,value
"COc1cc(C(C)=O)cc(/C=[N+](\[O-])C(C)(C)C)c1O [AN-1, (Z)-N-(5-Acetyl-2-hydroxy-3-methoxybenzylidene)-2-methylpropan-2-amine oxide]",half-life,[1]; [7],2.71 to 3.35 h
same,bioavailability,[1]; intragastric 40 mg/kg vs intravenous 40 mg/kg,78%
same,Cmax,[1]; [8],80 ± 20 µM
same,Tmax,[1]; [8],0.43 h
same,MRT last,[1]; [8],4.85 h
same,half-life,"[1]; po, intragastric, 40 mg/kg, n = 6, read-out: T1/2",3.35 ± 1.62 h
same,clearance,"[1]; intravenous, 20 mg/kg, n = 8",5 ± 1 mL/min/kg
same,MRT last,"[1]; intravenous, 20 mg/kg, n = 8",2.94 h
same,half-life,"[1]; intravenous, 20 mg/kg, n = 8, read-out: T1/2",2.86 ± 1.33 h
same,clearance,"[1]; intravenous, 40 mg/kg, n = 6",6 ± 1 mL/min/kg
same,MRT last,"[1]; intravenous, 40 mg/kg, n = 6",3.22 h
same,half-life,"[1]; intravenous, 40 mg/kg, n = 6, read-out: T1/2",2.71 ± 0.938 h
same,half-life,"[1]; intravenous, 80 mg/kg (0.302 mmol/kg), n = 8, read-out: T1/2",3 ± 0.748 h
same,clearance,"[1]; intravenous, 80 mg/kg, n = 8",5 ± 1 mL/min/kg
same,MRT last,"[1]; intravenous, 80 mg/kg, n = 8",3.42 h
same,exposure in the systemic circulation (AUC0–t) relative to apocynin,[1]; equimolar intravenous dose 0.302 mmol/kg,25 fold
same,AUC0–t,"[1]; intragastric, 40 mg/kg, n = 6",20.68 ± 3.95 mmol·min/L
same,CL,"[1]; intragastric, 40 mg/kg, n = 6",7 ± 1 mL/min/kg
same,V,"[1]; intragastric, 40 mg/kg, n = 6",1.95 ± 0.90 L/kg
same,AUC0–t,"[1]; intravenous, 20 mg/kg, n = 8",14.88 ± 1.31 mmol·min/L
same,V,"[1]; intravenous, 20 mg/kg, n = 8",1.20 ± 0.54 L/kg
same,AUC0–t,"[1]; intravenous, 40 mg/kg, n = 6",26.51 ± 5.12 mmol·min/L
same,V,"[1]; intravenous, 40 mg/kg, n = 6",1.27 ± 0.32 L/kg
same,AUC0–t,"[1]; intravenous, 80 mg/kg (0.302 mmol/kg), n = 8, 80 mg/kg",61.89 mmol·min/L and 61.89 ± 7.59 mmol·min/L
same,V,"[1]; intravenous, 80 mg/kg, n = 8",1.20 ± 0.32 L/kg
same,"Accuracy, post-preparative stability",[2]; [9],88.61±0.58%
same,"Accuracy, post-preparative stability",[2]; [10],88.14±0.84%
same,"Accuracy, post-preparative stability",[2]; [11],91.96±1.51%
same,time post-preparative solutions stable,[2],at least 8 h
same,Accuracy in stability test (summary),[2],higher than 90%
same,"Accuracy, short-term stability",[2]; [9],89.96±0.31%
same,"Accuracy, short-term stability",[2]; [10],91.99±1.37%
same,"Accuracy, short-term stability",[2]; [11],91.46±0.96%
same,"Accuracy, freeze-thaw stability",[2]; 0.2 µg/mL,94.79±0.46%
same,"Accuracy, freeze-thaw stability",[2]; 250 µg/mL,95.56±0.95%
same,"Accuracy, freeze-thaw stability",[2]; 400 µg/mL,96.33±0.98%
same,"Accuracy, long-term stability",[2]; 0.2 µg/mL,92.98±1.91%
same,"Accuracy, long-term stability",[2]; 250 µg/mL,94.74±2.43%
same,"Accuracy, long-term stability",[2]; 400 µg/mL,91.92±0.86%
same,solubility in water,[3],poor solubility in water
same,activity of superoxide dismutase in the lung of model rats,[4],significantly increased
same,treatment effect for the lung injury of model rats,[4],greater treatment effect than apocynin
same,protection against t-BHP inducing oxidative cytotoxicity,[5],protected
same,ROS production,[5]; t-BHP,attenuated the ROS production markedly
same,expression of gp91^phox induced by t-BHP,[6],depressing the high expression
"COc1cc(C(C)=O)ccc1O [Apocynin, 4-hydroxy-3-methoxyacetophenone]",half-life,[1]; [7],0.0983 to 0.102 h
same,bioavailability,[1]; intragastric 50 mg/kg vs intravenous 50 mg/kg,2.8%
same,Cmax,[1]; [12],8 ± 2 µM
same,Tmax,[1]; [12],0.0883 h
same,MRT last,[1]; [12],0.135 h
same,half-life,"[1]; po, intragastric, 50 mg/kg, n = 6, read-out: T1/2",0.0983 ± 0.03 h
same,half-life,"[1]; intravenous, 50 mg/kg (0.302 mmol/kg), n = 8, read-out: T1/2",0.102 ± 0.015 h
same,clearance,"[1]; intravenous, 50 mg/kg, n = 8",120 ± 20 mL/min/kg
same,MRT last,"[1]; intravenous, 50 mg/kg, n = 8",0.117 h
same,AUC0–t,"[1]; intragastric, 50 mg/kg, n = 6",0.07 ± 0.01 mmol·min/L
same,CL,"[1]; intragastric, 50 mg/kg, n = 6",3670 ± 350 mL/min/kg
same,V,"[1]; intragastric, 50 mg/kg, n = 6",31.46 ± 12.14 L/kg
same,AUC0–t,"[1]; intravenous, 50 mg/kg (0.302 mmol/kg), n = 8, 50 mg/kg",2.49 ± 0.46 mmol·min/L
same,AUC0–t,"[1]; intravenous, 50 mg/kg (0.302 mmol/kg), n = 8, listed as apocynin, 50 mg/kg",2.49 mmol·min/L
same,V,"[1]; intravenous, 50 mg/kg, n = 8",1.09 ± 0.30 L/kg
same,"Accuracy, post-preparative stability",[2]; [13],98.34±6.26%
same,"Accuracy, post-preparative stability",[2]; [14],94.57±0.60%
same,"Accuracy, post-preparative stability",[2]; [15],92.51±1.43%
same,time post-preparative solutions stable,[2],at least 8 h
same,Accuracy in stability test (summary),[2],higher than 90%
same,"Accuracy, short-term stability",[2]; [13],102.47±6.10%
same,"Accuracy, short-term stability",[2]; [14],95.52±1.01%
same,"Accuracy, short-term stability",[2]; [15],94.11±1.35%
same,"Accuracy, freeze-thaw stability",[2]; 0.4 µg/mL,102.87±1.62%
same,"Accuracy, freeze-thaw stability",[2]; 40 µg/mL,95.48±0.69%
same,"Accuracy, freeze-thaw stability",[2]; 80 µg/mL,93.60±1.79%
same,"Accuracy, long-term stability",[2]; 0.4 µg/mL,102.17±0.87%
same,"Accuracy, long-term stability",[2]; 40 µg/mL,95.18±0.34%
same,"Accuracy, long-term stability",[2]; 80 µg/mL,94.09±0.99%
